Laboratory results as given in patent publication US8906393B2, “Biofilm inhibiting composition” (Rutgers, The State University of New Jersey, priority 2011, dated 2014).

Assays:
S. aureus strain SH1000 = test: Biofilm inhibition assay (96-well microtiter plate crystal violet binding); assay type: cell-based, Staphylococcus aureus
Experimental: (§1) Biofilm inhibition assay. Biofilms were cultured in 96-well polystyrene microtiter plates as previously described. Briefly, cells were diluted to 104 to […] CFU/ml in TSB supplemented with 0.1 vol of PAM extract, or 0.1 vol of water as a control. Aliquots of cells (200 μl each) were transferred to the wells of a microtiter plate, and the plate was incubated at 37° C. for 18 h. Biofilms were washed with water and stained for 1 min with 200 μl of Gram's crystal violet. Stained biofilms were rinsed with water and dried. The amount of crystal violet binding was quantitated by destaining the biofilms for 10 min with 200 μl of 33% acetic acid, and then measuring the absorbance of the crystal violet solution at 595 nm. All assays were performed 3-5 times with similarly significant decreases in absorbance values.
Expressing the K. kingae pam genes in E. coli. Plasmids pGEM-T, pMB10, pMB5 and pMB9 were transformed into E. coli strain JM109. Transformants were selected on agar supplemented with 50 μg/ml ampicillin. Lawns of transformants were grown on agar plates supplemented with 50 μg/ml ampicillin and 1 mM IPTG. Lawns were harvested and cell-free extracts were prepared by ultracentrifugation as described above. Extracts were sterilized by passage through a 0.22-μm filter, incubated at 100° C. for 15 min, and then tested for activity in the biofilm inhibition assay described above.

K. kingae = test: Biofilm inhibition assay (96-well microtiter plate); assay type: cell-based, Kingella kingae; conditions: K. kingae PYKK181; crystal violet
Experimental: as §1

K. pneumoniae = test: as above; assay type: cell-based, Klebsiella pneumoniae; conditions: K. pneumoniae 1840; crystal violet
Experimental: as §1

Measured: biofilm-inhibiting activity of purified PAM galactan

→3)-β-D-Galf-(1→6)-β-D-Galf-(1→ [PAM galactan]
exhibited biofilm-inhibiting activity: all assays above
